From patent publication US20100152136A1 (priority 2006, published 2010)

Test system: newly diagnosed multiple myeloma patients
Assay: Total Therapy 2 (TT2) clinical trial, multivariate Cox regression of overall and event-free survival
Assay type: in vivo, human
Procedure: Purified plasma cells (PCs) were obtained from newly diagnosed multiple myeloma patients who were treated on NIH-sponsored clinical trials UARK 98-026 (Total Therapy 2, TT2) (n=351) and UARK 03-033 (Total Therapy 3, TT3) (n=214). Both protocols utilized induction regimens, followed by melphalan-based tandem autotransplants, consolidation chemotherapy and maintenance treatment.
The Kaplan-Meier method was to estimate OS. OS was defined as the time from the date of registration until death from any cause; survivors were censored at the time of last contact. Significance analysis of microarray (SAM) was used to determine statistically significant expression changes of genes in high- and low-TP53-expressing MM plasma cells. Univariate and multivariate analyses of prognostic factors were performed with the Cox regression.
The details of TT2 and TT3 protocols and their overall results have been reported previously; however, results related to 177 additional patients treated in a TT3 successor protocol to validate bortezomib pharmaco-genomic data have not been reported. The median follow-up times for TT2 and TT3 are 7.2 and 3.9 years, respectively. Both protocols and their revisions had been approved by the Institutional Review Board, and patients had signed a written informed consent in keeping with institutional and federal policies.
The Kaplan-Meier method was used to estimate overall and event-free survival with group comparisons made using the log-rank test. Overall survival and event-free survival were measured from the date of registration until death from any cause and disease relapse or death from any cause, respectively; survivors were censored at the time of last contact. Univariate and multivariate analyses of prognostic factors were carried out using Cox regression models.

[1] = TT2, randomization to thalidomide, 170/341 patients, multivariate analysis, median follow-up 7.2 years (Table 5)

## O=C1CCC(N2C(=O)c3ccccc3C2=O)C(=O)N1 (stereo not shown) [Thalidomide]
TT2, in words
  effect of randomization on event-free and overall survival: beneficial effect
TT2, randomization to thalidomide, 166/334 patients, multivariate analysis (Table 2)
  Event-Free Survival HR (95% CI): 0.75 (0.60, 0.93)
[1]
  Event-free survival HR: 0.61
  Overall Survival HR: 0.70
